This note sets out measurements from US9593108B2, “Compounds and methods for antiviral treatment” (PTC Therapeutics, Inc., priority 2009, dated 2017).

Data set [1] relates to HCV replicon RNA (GenBank Accession No. AJ242654). Put plainly: HCV Replicon Assay (replicon RNA reduction and/or Fluc reporter signal). The format is cell-based, Hepatitis C virus. The following applies: Hepatitis C virus, 72 h, replicon-containing cells cultured with test compound for up to 3 days. The method, boiled down: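 IC50 values mostly reflect the drop in replicon RNA, though Fluc reporter signal may also be used. Compound incubated with cells carrying the bicistronic replicon for as long as 3 days; interferon served as positive control.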
In general terms: A replicon is a self-replicating genome or part of one, used to study replication in cells.

In turn, `Cc1cnc2c(C#N)c(-c3ccc(S(=O)(=O)N[C@@H](C)C(F)(F)F)cc3)n(C3CCCC3)c2c1` [Cpd 180, 4-(3-cyano-1-cyclopentyl-6-methyl-1H-pyrrolo[3,2-b]pyridin-2-yl)-N-[(2S)-1,1,1-trifluoropropan-2-yl]benzenesulfonamide] returned a melting point of 278 to 279 °C. Further, in data set [1], the IC50 fell in the range of 0.5 to 2 µM.
`COc1cnc2c(c1)c(C#N)c(-c1ncc(S(=O)(=O)NC(C)C)cn1)n2C1CCC1` [Cpd 49, 2-(3-cyano-1-cyclobutyl-5-methoxy-1H-pyrrolo[2,3-b]pyridin-2-yl)-N-(propan-2-yl)pyrimidine-5-sulfonamide] displayed a melting point of 215 to 217 °C. This compound showed an IC50 in data set [1] of less than 0.5 µM.
The corresponding values for `Cc1cnc2c(c1)c(C#N)c(-c1ccc(S(=O)(=O)NC(C)(C)C)cn1)n2-c1ccccc1` [Cpd 524, N-tert-butyl-6-(3-cyano-5-methyl-1-phenyl-1H-pyrrolo[2,3-b]pyridin-2-yl)pyridine-3-sulfonamide] are 228.6 to 229.3 °C and 0.5 to 2 µM.
In turn, `COc1cnc2c(c1)c(C#N)c(-c1ccc(S(=O)(=O)NC(CF)CF)cn1)n2C1CCC1` [Cpd 9, 6-(3-cyano-1-cyclobutyl-5-methoxy-1H-pyrrolo[2,3-b]pyridin-2-yl)-N-(1,3-difluoropropan-2-yl)pyridine-3-sulfonamide] had a melting point of 161 to 163 °C. The compound also returned an IC50 in data set [1] of less than 0.5 µM.
For `C[C@H](NS(=O)(=O)c1ccc(-c2c(C#N)c3cc(C4CC4)ncc3n2C2CCC2)cc1)C(F)(F)F` [Cpd 224, 4-(3-cyano-1-cyclobutyl-5-cyclopropyl-1H-pyrrolo[2,3-c]pyridin-2-yl)-N-[(2S)-1,1,1-trifluoropropan-2-yl]benzenesulfonamide] the same measures were 190 to 195 °C and less than 0.5 µM.
Take `Cc1cnc2c(c1)c(C#N)c(-c1ccc(S(=O)(=O)N[C@H](C)C(F)(F)F)cn1)n2C1CCC1` [Cpd 68, 6-(3-cyano-1-cyclobutyl-5-methyl-1H-pyrrolo[2,3-b]pyridin-2-yl)-N-[(2R)-1,1,1-trifluoropropan-2-yl]pyridine-3-sulfonamide]: the melting point was 176 to 178 °C. In addition, the 50% inhibitory concentration (IC50) in data set [1] was less than 0.5 µM.
The compound `Cc1cnc2c(c1)c(C#N)c(-c1ccc(S(=O)(=O)N[C@@H](C)C(F)(F)F)cn1)n2-c1nccs1` [Cpd 450, 6-[3-cyano-5-methyl-1-(1,3-thiazol-2-yl)-1H-pyrrolo[2,3-b]pyridin-2-yl]-N-[(2S)-1,1,1-trifluoropropan-2-yl]pyridine-3-sulfonamide] had a melting point of 208 to 210 °C. This compound returned an IC50 in data set [1] of less than 0.5 µM.
Turning to `C[C@H](NS(=O)(=O)c1ccc(-c2c(C#N)c3ccc(C4CC4)nc3n2C2CCC2)nc1)C(F)(F)F` [Cpd 151, 6-(3-cyano-1-cyclobutyl-6-cyclopropyl-1H-pyrrolo[2,3-b]pyridin-2-yl)-N-[(2S)-1,1,1-trifluoropropan-2-yl]pyridine-3-sulfonamide], the melting point lay in the range of 170 to 176 °C. In data set [1], this compound gave a concentration for half-maximal inhibition (IC50) of less than 0.5 µM.
Turning to `Cc1cnc2c(c1)c(C#N)c(-c1ccc(S(=O)(=O)N[C@@H](C)C(F)(F)F)cn1)n2CC1CC1` [Cpd 494, 6-[3-cyano-1-(cyclopropylmethyl)-5-methyl-1H-pyrrolo[2,3-b]pyridin-2-yl]-N-[(2S)-1,1,1-trifluoropropan-2-yl]pyridine-3-sulfonamide], the melting point was in the range of 198 to 204 °C. This compound showed an IC50 in data set [1] of less than 0.5 µM.
`Cc1cnc2c(C#N)c(-c3ccc(S(=O)(=O)NC(C)(C)C(F)(F)F)cn3)n(C3CCCC3)c2c1` [Cpd 173, 6-(3-cyano-1-cyclopentyl-6-methyl-1H-pyrrolo[3,2-b]pyridin-2-yl)-N-(1,1,1-trifluoro-2-methylpropan-2-yl)pyridine-3-sulfonamide]: the melting point was 265 to 267 °C. In data set [1], this compound showed an IC50 of less than 0.5 µM.

As a reminder, the melting point is the temperature of the solid-liquid transition. In general, IC50 refers to the concentration needed to halve the response being measured.
